{"source": "patent US20250352524A1", "about": "“PREVENTION OF METASTATIC OUTGROWTH USING TEAD INHIBITORS” (Georgetown University, priority 2024, published 2025)", "tested_on": "DCIS:DCISA4 cells", "test": "DCIS:DCIS-Δ4 mammary fat pad tumors in NOD/SCID mice, lung metastasis", "format": "in vivo", "conditions": "for growth rate or final volume of the primary tumors: tumors resected at 4 weeks; for outgrowth of cancer cells disseminated to the lungs: immunofluorescent staining of lungs", "description": "Parental ductal carcinoma in situ (DCIS) was mixed with genetically-modified DCIS cells expressing AIB1-Δ4 (“DCIS-Δ4”) (see Sharif et al., 2021) at a 4:1 ratio, and the mix was injected into the mammary fat pad (MFP) of the mice. One group of mice received 30 mg/kg of the TEAD inhibitor VT107 (“iTEAD”) and the other group received vehicle treatment by daily oral gavage for 4 weeks. The primary tumors were removed by survival surgery. There was no difference observed in the growth rate or final volume of the primary tumors.\nLung tissues were subjected to RNA-Seq analysis, and Gene Set Enrichment Analysis (GSEA) was used to determine altered signaling pathways upon iTEAD treatment.\nTo further examine the effect of TEAD inhibition on the myeloid compartment of the lung, a human breast cancer cell line MCFDCIS (DCIS) that metastasizes to the lungs when a small population of cells (DCISA4) expresses an isoform of the transcription coactivator amplified in breast cancer 1 (Sharif et al., 2021), was used. DCIS:DCISA4 cells were injected into the mammary fat pad of NOD/SCID mice. Mice were treated daily with VT107. Tumors were surgically removed at week 4 and lungs were monitored for metastases for another 4 weeks without receiving additional treatment (FIG. 13, Panel B). Mouse body weights were measured weekly throughout the course of treatment (FIG. 13, Panel C). […] All mice in the vehicle treated group developed lung metastases as previously reported (Sharif et al., 2021). […] RNA was extracted from lung tissues to further examine the host stroma affected by VT107. RNA sequencing reads from the lungs were aligned to the mouse transcriptome to shed light on the host tissue changes in response to treatment in the presence of seeded cancer cells. […] These observations again show a shift in the inflammatory phenotypes in the microenvironment which could be responsible for the halt in the metastatic outgrowth of seeded cancer cells in the treated group.\nStudies in mice were reviewed and approved by the Georgetown University Animal Care and Use Committee (GUACUC). Animals were randomized to receive vehicle control (DMSO) or VT107. Treatment was formulated in 5% DMSO, 10% solutol and 85% D5W; D5W. 5% glucose and administered daily by oral gavage. Five hundred thousand cells were injected into the mammary fat pad of age-matched 8 weeks old female NOD/SCID or C57/B16 mice purchased from Charles River or Jackson Laboratory, respectively. A hundred thousand 4T1 cells were injected into the tail veins of BALB/c mice purchased from Jackson Laboratory. Experimental timelines, treatment start times and durations are indicated in the figure diagrams and figure legends. Tissues collected were preserved in RNAlater (Thermofisher, #AM7020) or fixed in 10% formalin for histology analysis.\nThe total RNA from tissue or cell lines was extracted using RNeasy Mini Kit (Qiagen, #74104) according to the manufacturer's instructions. Total RNA integrity was assessed with the Agilent 2100 Bioanalyzer. The library preparation and next-generation sequencing (NGS) were performed at Novogene Corporation Inc. (Sacramento, CA, USA). At least triplicate samples per experimental condition were analyzed, raw sequence reads (150 bp paired end, […] average reads/sample) were aligned to the human or mouse transcriptome using STAR, and aligned reads translated to expression counts via featurecounts, followed by a standard edgeR (RRID:SCR_012802) pipeline to identify DEGs under specific conditions. Ingenuity pathway analysis (IPA, RRID:SCR_008653) was undertaken using a list of all differentially expressed genes with a cutoff of p-value less than 0.05 to identify signaling pathways and upstream regulators.", "key": {"[1]": {"conditions": "pathway analysis of lung RNA sequencing, VT107 vs vehicle"}}, "note": "“Also recorded” adds a separate entry of the source."}
{"substance": "VT107", "values": [{"measurement": "development of lung metastases", "setting": "30 mg/kg daily oral gavage for 4 weeks vs vehicle, H&E lung sections, listed as iTEAD", "result": "did not develop lung metastases; also recorded: significantly reduced"}, {"measurement": "growth rate or final volume of the primary tumors", "setting": "30 mg/kg daily oral gavage for 4 weeks vs vehicle", "result": "similar"}, {"measurement": "growth rate or final volume of the primary tumors", "setting": "30 mg/kg daily oral gavage for 4 weeks vs vehicle, listed as iTEAD", "result": "no difference; also recorded: no effect"}, {"measurement": "outgrowth of cancer cells disseminated to the lungs", "setting": "30 mg/kg daily", "result": "failed to grow into overt metastases"}, {"measurement": "outgrowth of cancer cells disseminated to the lungs", "setting": "30 mg/kg daily, listed as iTEAD", "result": "halted outgrowth; also recorded: unable to outgrow"}, {"measurement": "mice with no overt lung metastases", "setting": "30 mg/kg daily, lungs monitored 4 weeks after tumor removal, all vehicle mice developed metastases", "result": "4 out of 5"}, {"measurement": "Toll-like receptor 4 (TLR4) signaling pathway in lung tissue (GSEA)", "setting": "RNA-Seq of lung tissue, iTEAD vs vehicle", "result": "drop and downregulation"}, {"measurement": "human actin relative to mouse actin in lung tissues by qPCR", "setting": "VT107-treated mice", "result": "presence of DCIS cells"}, {"measurement": "myeloid cell activating pathways, acute phase response signaling and PD-L1 immunotherapy pathways in lungs", "setting": "[1]", "result": "upregulation"}, {"measurement": "signaling pathways implicated in pulmonary and hepatic fibrosis, cardiac hypertrophy and liver injury in lungs", "setting": "[1]", "result": "downregulated"}]}
